Assay results as given in ChEMBL document CHEMBL3507680, “University of Dundee, Gates Library screen for HepG2 cell viability”.

assay: Human HepG2 cell viability assay in 384 well format; assay type: toxicity, cell-based; set-up: dose 125 nL, time 70.5 hour; concentration not given beside the values; conditions: HepG2 cells, read-out: Inhibition

SMILES	cytotoxicity at 70.5 h [%]
O=C(CCNc1ncccn1)Nc1ccc(Cn2cncn2)cc1	-7.19
CSCCC(Nc1nc(C)cc(C)n1)C(=O)NCC1CCOCC1 (stereo not drawn)	-8.81
COCCn1cc(CCC(=O)Nc2c(C)nn(C)c2C)c2ccccc21	49.6
O=C(Nc1ncc[nH]1)c1cc(-c2cccnc2)n[nH]1	-2.08
CC(C)c1sc(Cl)nc1C(=O)N1CCN(c2ccccc2)CC1	28.2
CC(=O)Nc1cccc2c1ccn2CC(=O)NC(C)C	-2.5
Cc1nn(C)c2nc(C(C)C)cc(C(=O)Nc3n[nH]c(C4CC4)n3)c12	27
CC1=Nc2c(c(=O)[nH]n2C2CCOCC2)C(c2cccc(O)c2)S1 (stereo not drawn)	-7.06
O=C(NCC1CCCO1)c1cc(-c2ccc3c(c2)CCO3)n[nH]1 (stereo not drawn)	16.6
CCN1CCCC1CNC(=O)Cc1c(-c2ccc(Cl)cc2)n[nH]c1C (stereo not drawn)	21.2
O=C(NC1CCCc2c1[nH]c1ccc(F)cc21)c1n[nH]c2c1CCCC2 (stereo not drawn)	27
CC(C)n1cnc2ccc(NC(=O)CCCn3cccn3)cc2c1=O	21.7
COCCn1cnc2ccc(NC(=O)c3ccc(OC)cc3)cc2c1=O	-9.11
COc1ccc(C(=O)Nc2ccc3ncn(C(C)C)c(=O)c3c2)cc1	-3.51
O=C1CSC(c2ccncc2)c2c(n(C3CCOCC3)[nH]c2=O)N1 (stereo not drawn)	36.4
O=C1CSC(c2ccccc2)c2c(n(C3CCOCC3)[nH]c2=O)N1 (stereo not drawn)	-23
COc1cccc(C(=O)Nc2n[nH]c(C3CCCO3)n2)c1 (stereo not drawn)	22.1
COc1ccc(-c2n[nH]c(C)c2CC(=O)N2CCOCC2)cc1	-6.85
COc1ccc(CC(=O)Nc2ccc3ncn(C)c(=O)c3c2)cc1	-2.82
COCCn1ccc2c(C(=O)NC3CN4CCC3CC4)cccc21 (stereo not drawn)	-20.8
COCCNC(=O)c1cc(-c2ccc3c(c2)CCO3)n[nH]1	15.5
CC(C)n1ccc2ccc(C(=O)NC3CN4CCC3CC4)cc21 (stereo not drawn)	-17.1
COc1ccc(-c2n[nH]c(C)c2CC(=O)NCCN2CCOCC2)cc1	-2.78
O=C(Cn1cnc2sccc2c1=O)NCCCc1nnc2ccccn12	-17.5
COCCn1ccc2c(NC(=O)c3n[nH]c4c3CCC4)cccc21	1.93
COc1ccc(-c2n[nH]c(C)c2CC(=O)NCC2CCCO2)cc1 (stereo not drawn)	20.6

SMILES	cytotoxicity at 70.5 h [%]
COc1ccc(C(=O)CNC(=O)c2nc(Cl)sc2C(C)C)cc1	25
O=C1CSC(c2cccnc2)c2c(n(C3CCOCC3)[nH]c2=O)N1 (stereo not drawn)	-24.2
CC(C)c1sc(Cl)nc1C(=O)NCc1ccncc1	19.6
O=C(CN1C(=O)CCC1=O)N1CCOCC1	48.6
CN(Cc1cccnc1)CC1CC12CCN(Cc1nccs1)CC2 (stereo not drawn)	2.96
O=S(=O)(c1cccc(F)c1)N1C[C@@H]2COC[C@]2(COCC2CC2)C1	4.21
C1CCN(Cc2nnn3c2CN(CC2CC2)CCC3)C1	0.89
C1CN(CC2CCOCC2)Cc2c(CN3CCOCC3)nnn2C1	6.54
c1nc2n(c1CN1CCOCC1)CCN(C1CCOC1)CC2 (stereo not drawn)	7.7
O=C(C1CCOC1)N1CCc2ncnc(NC3CCC3)c2CC1 (stereo not drawn)	-2.47
CCN(CC)Cc1cnc2n1CCN(C1CCOC1)CC2 (stereo not drawn)	-1.04
CC(C)NC(=O)[C@H]1CCS(=O)(=O)[C@@H]2CN(c3ncccn3)C[C@H]12	-6.18
CC(=O)N1CCCc2sc(C(=O)NC3CC3)nc21	-6.9
O=C(NC1CC1)c1nc2c(s1)CCCN2c1ccccc1	-6.79
COc1cc(N2C[C@H]3CN(C(=O)c4cnccn4)C[C@H]3C2)ncn1	-2.87
O=C(c1ccoc1)N1CC[C@H]2[C@H]1CCN2S(=O)(=O)C1CC1	13.5
O=C([C@H]1COC[C@H]2CN(c3ccncn3)C[C@H]21)N1CCCC1	13.9
O=C(c1ccncc1)N1CCc2onc(CN3CCCC3)c2C1	18.4
CCOCC1c2c(ncn2C(C)C)CCN1C(=O)CC (stereo not drawn)	7.88
CC(=O)N1CCC2(CC1)CNc1ccc(F)cc12	-5.28
CCC(=O)N1CCC2(COCc3c(C)nc(NCc4ccco4)nc32)C1 (stereo not drawn)	-6.57
CCOCC1CC2(CCN(C(=O)C3CC=CC3)CC2)CO1 (stereo not drawn)	-8.99
CC(C)Nc1nc2c(c(N(C)C)n1)CCN(C(=O)c1cc[nH]n1)CC2	-10.4
Cc1cccc(S(=O)(=O)N2C[C@@H]3OCCN(C(C)C)[C@@H]3C2)c1	-6.06
O=C(c1cccnc1)N1CCc2onc(CN3CCCC3)c2C1	-4.02
O=C(c1cnccn1)N1CCc2onc(CN3CCCC3)c2C1	1.69

SMILES	cytotoxicity at 70.5 h [%]
CNC(=O)N1CCC2(COCc3c(C)nc(NCc4ccco4)nc32)C1 (stereo not drawn)	-6.98
O=C(c1ccnnc1)N1CCc2onc(CN3CCCC3)c2C1	-3.95
CCN(C(=O)c1nc2c(s1)CCCN2Cc1ccccc1)C(C)C	-7.5
CNC(=O)N1CCC2(CC1)CNc1ccc(F)cc12	-5.44
CCOC1CC2(CCN(Cc3nccn3C)CC2)C1	-0.734
CN(C)Cc1nn(C)c2c1CCN(C(=O)c1cnccn1)C2	17.9
COc1ncnc2c1CCN(C(=O)NCc1cccnc1)CC2	1.49
CCCS(=O)(=O)N1C[C@@H]2CN(Cc3ccoc3)CCO[C@@H]2C1	6.66
Cc1cc(CN2C[C@@H]3CN(C(=O)c4ccsc4)CCO[C@@H]3C2)no1	5.07
O=C(NCc1cccnc1)N1CCc2ncnc(C3CC3)c2CC1	5.6
COc1cc(N2CCC3(CCN(C(=O)c4cccnc4)CC3)C2)ncn1	-6.37
O=C(NCC1CC1)[C@@H]1C[C@@H]2OCCN[C@@H]2C1	-2.73
O=C(c1ccsc1)N1CCO[C@@H]2CN(Cc3cccs3)C[C@@H]2C1	-6.05
O=C(c1ccncc1)N1CC[C@H]2[C@H]1CCN2S(=O)(=O)C1CC1	-5.53
O=C([C@@H]1COC[C@H]2CN(c3ccncn3)C[C@H]21)N1CCCC1	10.6
CCC1=N[C@@]2(CC[C@@H]3CN(CC(C)C)C[C@@H]32)C(=O)N1	-2.78
c1cnc(N2CCOCC3(CCCN(Cc4cc[nH]n4)C3)C2)nc1 (stereo not drawn)	-3
O=C(COC1CCCC1)N1C[C@@H]2CN(Cc3ccoc3)CCO[C@@H]2C1	-6.78
Cc1nc2c(c(NC(C)C)n1)CCN(C(=O)c1ccno1)CC2	-6.32
CN1CCO[C@@H]2CN(S(=O)(=O)c3ccccc3F)CC[C@@H]2C1	-1.61
O=C(c1ccccn1)N1CCOC2(COCCN(Cc3cc[nH]n3)C2)C1 (stereo not drawn)	-3.84
c1cncc(CN2CCc3ncnc(C4CC4)c3CC2)c1	2.26
Cn1nnc2c1CCN(Cc1ccncc1)C2COCc1ccccc1 (stereo not drawn)	-6.13
Cn1nc(CN2CCCC2)c2c1CN(C(=O)c1cccnc1)CC2	-2.33
c1ccc(CN2CCCn3nnc(COc4ccccn4)c3C2)nc1	-11.2
CC(C)N1[C@H](CN(C)C)C[C@@H]2CN(c3ncc(F)cn3)CC[C@@H]21	6.71
